Results: patent US20260130917A1, “ANTIVIRAL COMPOSITION FOR CORONAVIRUS OR INFLUENZA VIRUS, USING NATURAL PRODUCTS, AND USE THEREOF” (priority 2022, published 2026)
pIC50: −log10 of the molar value.

Key:
in vitro [1] = details: monkey
[2] = system: SARS-CoV-2 (βCoV/KOR/KCDC03/2020); experiment: microbe, parasite or virus in culture; details: Severe acute respiratory syndrome coronavirus 2, Vero
[3] = system: SARS-CoV-2 (βCoV/KOR/KCDC03/2020); experiment: in vitro; details: monkey
[4] = system: SARS-CoV-2 (βCoV/KOR/KCDC03/2020); experiment: in vitro; details: human
in vitro [5] = details: human
[6] = system: SARS-CoV-2 (βCoV/KOR/KCDC03/2020); experiment: microbe, parasite or virus in culture; details: Severe acute respiratory syndrome coronavirus 2, Calu-3
[7] = system: SARS-CoV-2 spike pseudovirus particles; experiment: organism not typed; type: cell-based
[8] = system: SARS-CoV-2 virus (B CoV/Korea/KCDC03/2020, NCCP43326); experiment: Time-of-addition assay in Vero cells; type: cell-based; details: 50 μM, MOI 3
[9] = system: SARS-CoV-2 βCoV/Korea/KCDC03/2020, NCCP43326; experiment: Efficacy in SARS-CoV-2 infected hACE2 transgenic mice (lung virus titer and viral RNA); type: in vivo; details: orally at 50 mg/kg, once a day three times, lungs on third day
[10] = system: influenza A H1N1 A/California/07/2009; experiment: Antiviral activity against influenza virus in MDCK cells; type: cell-based, influenza A virus; details: concentration of 6.3 μM
[11] = system: influenza A H3N2 A/Hong Kong/4801/2014; experiment: as above; type: cell-based, influenza A virus; details: concentration of 6.3 μM
[12] = system: influenza B B/Brisbane/60/2008; experiment: as above; type: cell-based, influenza B virus; details: concentration of 6.3 μM

Row | SMILES | CC50 (in vitro [1]) [µM] | pIC50 [2] | selectivity ratio [3] | also measured
1 | CCCCCCCOC(=O)c1ccc(OC(=O)c2cncc(Br)c2)cc1 [MolPort-003-713-431, 4-[(heptyloxy)carbonyl]phenyl 5-bromopyridine-3-carboxylate] | > 100 | 4.24 |  | 
2 | CC/C=C\C/C=C\C/C=C\C/C=C\C/C=C\C/C=C\CCC(=O)O [MolPort-003-932-890, (4Z,7Z,10Z,13Z,16Z,19Z)-docosa-4,7,10,13,16,19-hexaenoic acid] | 62.4 | 4.23 | 1.06 | 
3 | CC/C=C\C/C=C\C/C=C\C/C=C\C/C=C\CCCC(=O)O [MolPort-003-933-180, (5Z,8Z,11Z,14Z,17Z)-icosa-5,8,11,14,17-pentaenoic acid] | 70.5 | 4.38 | 1.69 | 
4 | CC/C=C\C/C=C\C/C=C\CCCCCCCC(=O)O [MolPort-003-937-817, (9Z,12Z,15Z)-octadeca-9,12,15-trienoic acid] | > 100 | 4.23 | 1.71 | 
5 | CCCCCC[C@@H](O)C/C=C\CCCCCCCC(=O)O [MolPort-003-939-239, (9Z,12R)-12-hydroxyoctadec-9-enoic acid] | > 100 | 4.22 |  | 
6 | CCCCCCCCCCC#CC#CCCCCCCCCC(=O)O [MolPort-003-939-688, tricosa-10,12-diynoic acid] | > 100 | 4.52 |  | selectivity ratio [4]: 1.19; CC50 (in vitro [5]): > 100 µM; pIC50 [6]: 4.08
7 | O=C(C[C@@H]1CCNC[C@@H]1Cc1cc(COc2ccccc2)on1)NCc1ccc(F)cc1 [MolPort-005-947-745, N-[(4-fluorophenyl)methyl]-2-[(3R,4S)-3-{[5-(phenoxymethyl)-1,2-oxazol-3-yl]methyl}piperidin-4-yl]acetamide] | 34.7 | 4.61 | 1.43 | 
8 | O=C(CCCNC(=O)c1cc2ccccc2o1)NCCc1c[nH]c2ccccc12 [MolPort-005-974-761, 4-[(1-benzofuran-2-yl)formamido]-N-[2-(1H-indol-3-yl)ethyl]butanamide] | > 100 | 4.15 |  | 
9 | CCCCCOc1cccc(/C=C/C23N=C(O)CCN2c2ccccc2C3(C)C)c1 (centres unmarked) [MolPort-005-980-235, 10,10-dimethyl-10a-[(1E)-2-[3-(pentyloxy)phenyl]ethenyl]-3H,4H,10H,10aH-pyrimido[1,2-a]indol-2-ol] | > 100 | 5.07 |  | pIC50 ([7]; 48 h): 4.56; inhibition at 50 µM ([7]; Severe acute respiratory syndrome coronavirus 2, read-out: inhibition of intracellular entry of the SARS-CoV-2 virus): ~90%; virus infection pattern ([8]; treated 1 hour after virus infection): virus infection could not be prevented; virus infection pattern ([8]; treated 1 hour before virus infection or simultaneously with the virus): virus infection did not occur; viral RNA in the lungs [9]: decreased at a statistically significant level; viral titer (TCID50) in the lungs [9]: tended to decrease; antiviral activity [10]: about 90%; antiviral activity [11]: about 90%; antiviral activity [12]: about 50%; selectivity ratio [4]: 6.42; pIC50 [6]: 4.81
10 | CC/C=C/C/C=C/C/C=C/C/C=C/C/C=C/C/C=C\CCC(=O)O [MolPort-008-266-638, (4Z,7E,10E,13E,16E,19E)-docosa-4,7,10,13,16,19-hexaenoic acid] | 36.2 | 4.55 | 1.29 | 
11 | CC(C)CCC(CCNCc1ccc(OC(C)C)cc1)C1CCOC(C)(C)C1 (centres unmarked) [MolPort-009-758-577, [3-(2,2-dimethyloxan-4-yl)-6-methylheptyl]({[4-(propan-2-yloxy)phenyl]methyl})amine and oxalic acid] | 14.5 | 5.10 | 1.83 | 
12 | O=C(NC[C@@H]1CCCN2CCCC[C@H]12)c1cccc(-c2cc3ccccc3oc2=O)c1 [MolPort-027-564-039, N-{[(1S,9aR)-octahydro-1H-quinolizin-1-yl]methyl}-3-(2-oxo-2H-chromen-3-yl)benzamide] | > 100 | 4.63 |  | 
13 | O=C(Cn1ccc2ccc(OCc3ccccc3)cc21)NC[C@@H]1CCCN2CCCC[C@H]12 [MolPort-027-564-475, N-{[(1S,9aR)-octahydro-1H-quinolizin-1-yl]methyl}-2-[6-(benzyloxy)-1H-indol-1-yl]acetamide] | 34.3 | 4.73 | 1.85 | 
